We go through 15 compounds from patent US9783536B2, “Nitrogen-containing heterocyclic compound or salt thereof” (FUJIFILM Corporation, priority 2013, dated 2017).

One assay has as its target T1, human PI3Kα protein (Homo sapiens, UniProt P42336).
T1 construct: purchased Carna Biosciences, Inc; host or cells: baculovirus expression system
Put plainly: PI3Kα enzyme assay (ADP-Glo). It is filed as biochemical. As to conditions: read-out: PI3Kα enzyme inhibitory activity. An outline of the steps: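 Biotinylated human PI3Kα (baculovirus-expressed, 4.5 nmol/L) pre-incubated 15 min with compound in Tris-HCl pH 7.5, MgCl2, BSA; reaction 60 min at 25° C with 50 μmol/L PIP2 and 100 μmol/L ATP final. ADP quantified by ADP-Glo luminescence; IC50 calculated.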

Assay [1] deals with T2, GST fusion human ERK2 protein (Homo sapiens, UniProt P28482).
T2 construct: purchased Carna Biosciences, Inc; host or cells: E. coli expression system
Put plainly: ERK2 enzyme assay (1). It is filed as biochemical. As to conditions: read-out: ERK2 enzyme inhibitory activity (1). Summed up: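 Enzyme (2.5 nmol/L, E. coli-expressed) preincubated with compound 15 min at room temperature in HEPES/MgCl2/DTT/Brij35 buffer, pH 7.5; reaction with 4.25 μmol/L FL-Peptide 8 and 43.1 μmol/L ATP for 120 min at 25 °C. Phosphorylated peptide fraction quantified by mobility-shift separation after EDTA stop; IC50 calculated.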

The test system of another assay is CHO-K1 cells. Put plainly: CHO cell toxicity test. The format is cell-based, Chinese hamster. As to conditions: Cricetulus griseus, read-out: IC50 value (concentration at which the number of viable cells was suppressed to 50% or less). An outline of the steps: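 CHO-K1 cells were cultured 24 h, then exposed 24 h to compound at final 25.00 to 0.20 μmol/L in F-12 with 2% FCS. Viability read by CellTiter-Glo luminescence; inhibition % = 100 − (treated/untreated signal)×100.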

Assay [2] deals with T2, GST fusion human ERK2 protein. In words: ERK2 enzyme assay (2). It is filed as biochemical. As to conditions: read-out: ERK2 enzyme inhibitory activity (2). An outline of the steps: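 GST-tagged human ERK2 expressed in E. coli (1.25 nmol/L) was preincubated with compound for 15 min at room temperature in pH 7.5 Hepes buffer with MgCl2, DTT and Brij35. Reaction with FL-Peptide 8 (final 4.25 μmol/L) and ATP (final 1 mmol/L) ran 120 min at 25 °C; EDTA stopped it, and phosphorylated peptide was quantified by mobility-shift separation to derive IC50.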

Where [3] appears, read: 4.5 nmol/L PI3Kα, PIP2 50 μmol/L, ATP 100 μmol/L.
[4] abbreviates: 2.5 nmol/L ERK2, ATP 43.1 μmol/L.
Where [5] appears, read: CHO-K1 cells, 24 hours culture with compound, CellTiter-Glo.

Where two headings read alike, the source gives them in different places.

T1 sequence (P42336 whole entry): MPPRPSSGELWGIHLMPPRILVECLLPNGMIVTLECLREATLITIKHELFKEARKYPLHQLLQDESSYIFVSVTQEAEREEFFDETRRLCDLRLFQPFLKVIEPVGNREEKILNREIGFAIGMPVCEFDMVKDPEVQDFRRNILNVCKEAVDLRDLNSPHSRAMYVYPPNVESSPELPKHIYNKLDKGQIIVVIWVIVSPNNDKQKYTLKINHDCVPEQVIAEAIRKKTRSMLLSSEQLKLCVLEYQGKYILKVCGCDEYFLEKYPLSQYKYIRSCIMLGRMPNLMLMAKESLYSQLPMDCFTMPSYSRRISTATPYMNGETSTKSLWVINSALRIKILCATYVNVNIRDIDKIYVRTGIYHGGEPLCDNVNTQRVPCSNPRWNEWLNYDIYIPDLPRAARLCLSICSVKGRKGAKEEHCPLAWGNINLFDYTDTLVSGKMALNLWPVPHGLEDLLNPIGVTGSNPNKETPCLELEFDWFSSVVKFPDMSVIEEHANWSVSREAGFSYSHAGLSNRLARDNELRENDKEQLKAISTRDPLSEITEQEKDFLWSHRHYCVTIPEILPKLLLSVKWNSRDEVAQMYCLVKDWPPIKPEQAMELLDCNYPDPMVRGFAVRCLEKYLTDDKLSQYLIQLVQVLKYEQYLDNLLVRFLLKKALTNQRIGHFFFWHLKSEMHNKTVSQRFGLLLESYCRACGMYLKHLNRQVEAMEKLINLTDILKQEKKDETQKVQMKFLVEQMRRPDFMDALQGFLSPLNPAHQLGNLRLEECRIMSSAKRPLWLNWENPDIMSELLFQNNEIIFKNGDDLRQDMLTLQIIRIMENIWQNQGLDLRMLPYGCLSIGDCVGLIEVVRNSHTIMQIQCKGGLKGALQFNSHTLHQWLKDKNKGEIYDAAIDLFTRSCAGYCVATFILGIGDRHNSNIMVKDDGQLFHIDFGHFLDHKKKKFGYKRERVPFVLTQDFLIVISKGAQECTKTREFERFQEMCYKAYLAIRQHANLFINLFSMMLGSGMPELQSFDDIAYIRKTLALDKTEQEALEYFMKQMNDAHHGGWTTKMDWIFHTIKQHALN
T1 sequence (P27986 whole entry partner): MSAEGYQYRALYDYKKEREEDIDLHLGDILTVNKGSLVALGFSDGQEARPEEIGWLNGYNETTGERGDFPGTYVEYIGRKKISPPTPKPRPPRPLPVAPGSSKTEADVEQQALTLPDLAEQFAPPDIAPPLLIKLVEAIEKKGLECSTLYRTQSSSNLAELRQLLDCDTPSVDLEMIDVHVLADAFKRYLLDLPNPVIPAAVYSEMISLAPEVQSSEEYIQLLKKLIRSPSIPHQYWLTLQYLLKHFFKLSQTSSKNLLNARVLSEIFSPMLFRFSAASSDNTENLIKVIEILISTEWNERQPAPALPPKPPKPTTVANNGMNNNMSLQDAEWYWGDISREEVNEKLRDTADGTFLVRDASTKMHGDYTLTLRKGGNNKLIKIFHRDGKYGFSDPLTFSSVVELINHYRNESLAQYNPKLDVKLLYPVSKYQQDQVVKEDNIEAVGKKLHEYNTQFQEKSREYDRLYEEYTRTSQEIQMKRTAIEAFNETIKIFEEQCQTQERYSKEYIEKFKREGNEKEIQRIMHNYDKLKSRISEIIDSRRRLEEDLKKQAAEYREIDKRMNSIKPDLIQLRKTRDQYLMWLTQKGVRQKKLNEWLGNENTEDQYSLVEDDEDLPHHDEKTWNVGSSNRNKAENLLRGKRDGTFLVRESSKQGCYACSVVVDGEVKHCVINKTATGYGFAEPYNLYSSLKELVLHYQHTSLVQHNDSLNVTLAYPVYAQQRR
T2 sequence (P28482 whole entry, the tested form may be a part): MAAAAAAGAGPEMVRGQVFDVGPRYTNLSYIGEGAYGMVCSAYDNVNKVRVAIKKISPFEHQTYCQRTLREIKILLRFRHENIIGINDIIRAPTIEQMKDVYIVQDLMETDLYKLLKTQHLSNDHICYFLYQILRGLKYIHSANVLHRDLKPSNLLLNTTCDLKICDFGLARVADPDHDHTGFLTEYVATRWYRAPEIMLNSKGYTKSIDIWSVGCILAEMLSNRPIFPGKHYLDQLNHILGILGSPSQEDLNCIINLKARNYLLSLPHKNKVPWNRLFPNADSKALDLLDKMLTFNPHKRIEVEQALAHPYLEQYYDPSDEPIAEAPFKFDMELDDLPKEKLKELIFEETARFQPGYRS

Take `c1nnc(Nc2ccc3ncc(-c4cnn(CCCN5CCOCC5)c4)cc3n2)s1` [Example 0001, N-(7-(1-(3-morpholinopropyl)-1H-pyrazol-4-yl)-1,5-naphthyridin-2-yl)-1,3,4-thiadiazole-2-amine]: the IC50 at human PI3Kα protein (setting [3]) was less than 1000 nM; in assay [1] (setting [4]), less than 1000 nM; in the assay with CHO-K1 cells (setting [5]) it was not below 25000 nM.
In the case of `c1nc2ccc(Nc3cc(C4CCOC4)cnn3)nc2cc1-c1cnn(CCCN2CCCC2)c1` (stereo not drawn) [Example 0019, 7-(1-(3-(Pyrrolidin-1-yl)propyl)-1H-pyrazol-4-yl)-N-(5-(tetrahydrofuran-3-yl)pyridazin-3-yl)-1,5-naphthyridine-2-amine], the IC50 at human PI3Kα protein (setting [3]) is less than 1000 nM; in assay [1] (setting [4]), less than 1000 nM; in the assay on CHO-K1 cells (setting [5]), not below 25000 nM.
On to `Cn1cc(-c2cnc3ccc(Nc4cccnn4)nc3c2)cn1` [Example 0037], for which the IC50 was 1000 to 10000 nM at human PI3Kα protein (setting [3]), less than 1000 nM in assay [1] (setting [4]) and not below 25000 nM with CHO-K1 cells (setting [5]).
For `OCCOc1cncc(Nc2cnc3ccc(Nc4nnc(C5CCCC5)s4)nc3c2)c1` [Example 0097], in that order: less than 1000 nM, less than 1000 nM and not below 25000 nM.
For `c1csc(Nc2ccc3ncc(-c4cnn(CCCN5CCCC5)c4)cc3n2)n1` [Example 0128], in that order: less than 1000 nM, less than 1000 nM and not below 25000 nM.
For `O=S(=O)(Nc1nnc(Nc2ccc3ncc(-c4cnn(CCN5CCOCC5)c4)cc3n2)s1)c1ccccc1` [Example 0179, N-(5-((7-(1-(2-morpholinoethyl)-1H-pyrazol-4-yl)-1,5-naphthyridin-2-yl)amino)-1,3,4-thiadiazol-2-yl)benzene sulfonamide], in that order: less than 1000 nM, less than 1000 nM and not below 25000 nM.
As for `c1n[nH]cc1Nc1cnc2ccc(Nc3nnc(C4CCC4)s3)nc2c1` [Example 0222, N^2-(5-cyclobutyl-1,3,4-thiadiazol-2-yl)-N^7-(1H-pyrazol-4-yl)-1,5-naphthyridine-2,7-diamine], the IC50 on human PI3Kα protein was less than 1000 nM; in assay [1] (ERK2 enzyme assay (1)), less than 1000 nM; in the assay on CHO-K1 cells (setting [5]) it was not below 25000 nM.
`Cn1cc(-c2cnc3ccc(Nc4nnc([C@@H]5CCCO5)s4)nc3c2)cn1` [Example 0231]: the IC50 on human PI3Kα protein is less than 1000 nM; in assay [1] (ERK2 enzyme assay (1)) it was less than 1000 nM; in the assay on CHO-K1 cells (setting [5]), not below 25000 nM.
For `Cc1nn(C)cc1-c1cnc2ccc(Nc3cc(C(C)C)cnn3)nc2c1` [Example 0757, 7-(1,3-dimethyl-1H-pyrazol-4-yl)-N-(5-isopropylpyridazin-3-yl)-1,5-naphthyridine-2-amine], the results for the IC50 (on human PI3Kα protein; in the assay on CHO-K1 cells (setting [5]); in assay [2] (ERK2 enzyme assay (2))) were less than 1000 nM, not below 25000 nM and less than 1000 nM, respectively.
With `CCc1nn(C)cc1-c1cnc2ccc(Nc3cc(C(C)C)cnn3)nc2c1` [Example 0761], the IC50 at human PI3Kα protein was less than 1000 nM; with CHO-K1 cells (setting [5]), not below 25000 nM; in assay [2] (ERK2 enzyme assay (2)) it was less than 1000 nM.
With `CC(C)c1cnnc(Nc2ccc3ncc(-c4cn(C)nc4CC4CCOCC4)cc3n2)c1` [Example 0773], the IC50 on human PI3Kα protein was less than 1000 nM; in the assay on CHO-K1 cells (setting [5]), not below 25000 nM; in assay [2] (ERK2 enzyme assay (2)) it was less than 1000 nM.
With `CC(C)c1cnnc(Nc2ccc3ncc(-c4cn(C)nc4CC4CC4)cc3n2)c1` [Example 0781], the IC50 was less than 1000 nM at human PI3Kα protein; not below 25000 nM in the assay on CHO-K1 cells (CHO-K1, 24 h); less than 1000 nM in assay [2] (ERK2 enzyme assay (2)).
As to `CC(=O)c1ccc(Cn2cc(-c3cnc4ccc(Nc5cc(C(C)C)cnn5)nc4c3)cn2)cc1` [Example 0795], the results for the IC50 (on human PI3Kα protein; in the assay on CHO-K1 cells (setting [5]); in assay [2] (ERK2 enzyme assay (2))) were less than 1000 nM, not below 25000 nM and less than 1000 nM, respectively.
As to `COC1CN(CC(Cn2cc(-c3cnc4ccc(Nc5cc(C(C)C)cnn5)nc4c3)cn2)OC)C1` (stereo not drawn) [Example 0812, N-(5-isopropylpyridazin-3-yl)-7-(1-(2-methoxy-3-(3-methoxyazetidin-1-yl)propyl)-1H-pyrazol-4-yl)-1,5-naphthyridine-2-amine], the values for the IC50 (at human PI3Kα protein; with CHO-K1 cells (setting [5]); in assay [2] (ERK2 enzyme assay (2))) were less than 1000 nM, not below 25000 nM and less than 1000 nM, respectively.
As for `CCCc1cnnc(Nc2ccc3ncc(-c4cn(C)nc4C)cc3n2)c1` [Example 0919], the IC50 at human PI3Kα protein was less than 1000 nM; with CHO-K1 cells (setting [5]) it was not below 25000 nM; in assay [2], less than 1000 nM.
